Values after ≈ are worked out from the molar mass of the structure shown. Active and inactive are the calls of the source. The calls are words filed in the database; no cut-off is given here.
What was measured:
Homo sapiens = species on record: Homo sapiens; assay: Selectivity ratio of Ki for human adenosine A1 receptor to Ki for human adenosine A2A receptor
Cytochrome P450 3A4 = Cytochrome P450 3A4 (Homo sapiens, UniProt P08684)
Description: Inhibition of CYP3A4 in human liver microsomes by LC-MS/MS analysis

Adenosine receptor A2a [1] = molecular target: T1, Adenosine receptor A2a (Homo sapiens, UniProt P29274); assay: Displacement of [3H][…] from human adenosine A2A receptor expressed in HEK293 cells; format: cell-based
T1 sequence (P29274 whole entry): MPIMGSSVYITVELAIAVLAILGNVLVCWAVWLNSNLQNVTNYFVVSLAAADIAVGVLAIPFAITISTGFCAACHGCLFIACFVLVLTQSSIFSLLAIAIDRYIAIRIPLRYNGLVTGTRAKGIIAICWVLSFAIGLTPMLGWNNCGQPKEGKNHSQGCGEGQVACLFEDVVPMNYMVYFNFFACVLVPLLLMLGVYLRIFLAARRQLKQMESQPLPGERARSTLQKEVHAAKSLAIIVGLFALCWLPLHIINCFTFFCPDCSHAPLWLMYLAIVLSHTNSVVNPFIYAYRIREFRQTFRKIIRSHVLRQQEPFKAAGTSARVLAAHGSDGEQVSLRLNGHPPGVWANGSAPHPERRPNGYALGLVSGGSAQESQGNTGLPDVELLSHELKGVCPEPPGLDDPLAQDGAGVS

Adenosine receptor A1 = molecular target: T2, Adenosine receptor A1 (Homo sapiens, UniProt P30542); assay: Displacement of [3H]DPCPX from human adenosine A1 receptor expressed in HEK293 cells; format: cell-based
T2 sequence (P30542 whole entry): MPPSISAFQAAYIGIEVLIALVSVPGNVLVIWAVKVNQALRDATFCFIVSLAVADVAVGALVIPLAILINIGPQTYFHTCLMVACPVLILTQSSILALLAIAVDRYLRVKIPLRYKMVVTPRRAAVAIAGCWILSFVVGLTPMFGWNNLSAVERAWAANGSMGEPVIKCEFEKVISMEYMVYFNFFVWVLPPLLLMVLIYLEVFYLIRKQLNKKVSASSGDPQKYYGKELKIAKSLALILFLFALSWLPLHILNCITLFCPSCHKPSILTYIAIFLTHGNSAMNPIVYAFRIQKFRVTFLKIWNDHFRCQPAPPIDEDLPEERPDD

[2] = Metabolic stability in rat liver microsomes assessed as intrinsic clearance by LC-MS/MS analysis; format: ADME, Microsome
[3] = Metabolic stability in human liver microsomes assessed as intrinsic clearance by LC-MS/MS analysis; format: ADME, Microsome
[4] = Drug concentration in rat brain at 10 mg/kg, po after 2 hrs; format: ADME, organism-based; design: dose 10 mg/kg, route oral; details: read-out: Drug uptake
Adenosine receptor A2a [5] = molecular target: T1, Adenosine receptor A2a; assay: Antagonist activity at human adenosine A2A receptor expressed in CHO cells assessed as inhibition of CGS-21680-induced cAMP production; format: functional, cell-based
Rattus norvegicus [6] = species on record: Rattus norvegicus; assay: Inhibition of haloperidol-induced catalepsy in rat assessed as minimal effective dose; format: functional; details: read-out: MED
[7] = Plasma concentration in rat at 10 mg/kg, po after 2 hrs; format: ADME, organism-based; design: dose 10 mg/kg, route oral
Adenosine receptor A2a [8] = molecular target: Adenosine receptor A2a (Rattus norvegicus, UniProt P30543); assay: Displacement of [3H][…] from rat adenosine A2A receptor expressed in CHO cells; format: cell-based
Sequence of Adenosine receptor A2a (Rattus norvegicus, UniProt P30543) (P30543 whole entry): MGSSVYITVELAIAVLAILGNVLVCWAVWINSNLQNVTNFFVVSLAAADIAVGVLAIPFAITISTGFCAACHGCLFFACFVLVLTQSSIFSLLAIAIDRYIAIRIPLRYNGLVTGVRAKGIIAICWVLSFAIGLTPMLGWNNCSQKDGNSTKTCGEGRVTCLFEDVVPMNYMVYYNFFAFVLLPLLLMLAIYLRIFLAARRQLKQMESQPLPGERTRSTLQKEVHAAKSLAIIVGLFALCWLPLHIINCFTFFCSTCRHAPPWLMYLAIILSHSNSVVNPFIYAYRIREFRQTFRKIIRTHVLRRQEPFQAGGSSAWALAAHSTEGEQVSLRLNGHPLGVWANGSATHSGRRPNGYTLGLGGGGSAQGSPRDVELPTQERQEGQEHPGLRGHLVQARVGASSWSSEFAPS

Rattus norvegicus [9] = assay: Inhibition of haloperidol-induced catalepsy in rat at 10 mg/kg, po after 2 hrs; format: functional; design: scale not given: the % may be the effect or the level left
[10] = Lipophilicity, log D at pH 7.4; format: physicochemical; details: buffer
[11] = Dissociation constant, pKa of the compound; format: physicochemical
Rattus norvegicus [12] = assay: Inhibition of haloperidol-induced catalepsy in rat at 30 mg/kg, po after 2 hrs; format: functional
[13] = Permeability from apical to basolateral side of the human Caco-2 membrane by LC-MS/MS analysis; format: ADME, cell-based; details: read-out: permeability
[14] = Aqueous solubility in phosphate-buffered saline at pH 7.4; format: physicochemical

Sequence of Cytochrome P450 3A4 (P08684 whole entry): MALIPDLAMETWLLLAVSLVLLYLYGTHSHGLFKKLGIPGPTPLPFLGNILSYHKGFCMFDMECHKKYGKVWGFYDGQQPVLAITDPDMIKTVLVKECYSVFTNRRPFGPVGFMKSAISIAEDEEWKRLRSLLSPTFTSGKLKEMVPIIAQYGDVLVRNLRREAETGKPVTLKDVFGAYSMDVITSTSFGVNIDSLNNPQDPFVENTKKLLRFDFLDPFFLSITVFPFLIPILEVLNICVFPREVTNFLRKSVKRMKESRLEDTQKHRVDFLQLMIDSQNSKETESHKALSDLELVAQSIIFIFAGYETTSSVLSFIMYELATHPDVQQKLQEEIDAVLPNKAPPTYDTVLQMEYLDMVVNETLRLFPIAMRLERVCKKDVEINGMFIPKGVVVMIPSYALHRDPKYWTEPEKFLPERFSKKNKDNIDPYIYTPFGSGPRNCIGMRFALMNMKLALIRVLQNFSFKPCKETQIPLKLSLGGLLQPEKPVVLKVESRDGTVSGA

Structure (SMILES)	Ratio Ki (Homo sapiens)	IC50 (Cytochrome P450 3A4) [µM]	Ki (Adenosine receptor A2a [1]) [nM]	Ki (Adenosine receptor A1) [nM]	CLint scaled [2] [mL/min/kg]	CLint scaled [3] [mL/min/kg]	concentration at 2 h [4] [ng/g]	IC50 (Adenosine receptor A2a [5]) [nM]	minimal effective dose (Rattus norvegicus [6]) [mg/kg]	concentration at 2 h [7] [ng/mL]	Ki (Adenosine receptor A2a [8]) [nM]	Activity (Rattus norvegicus [9]) [%]	logD [10]	pKa [11]	Activity (Rattus norvegicus [12])	Papp A→B [13] [×10⁻⁶ cm/s]	solubility [14] [µg/mL]
CC(=O)Nc1cc(-c2cccc(N)n2)nc(-n2nc(C)cc2C)n1	57	> 20	7.9	440	–	–	–	–	–	–	–	–	–	–	–	–	–
CC(=O)Nc1cc(-c2cccc(N3CCCOCC3)n2)nc(-n2nc(C)cc2C)n1	121	> 20	2.3	280	1000	94	–	–	–	–	–	–	–	–	–	–	–
CC(=O)Nc1cc(-c2cccnc2)nc(-n2nc(C)cc2C)n1	18	> 20	120	2100	–	–	–	–	–	–	–	–	–	–	–	–	–
CC(=O)Nc1cc(-c2cccc(N(C)C)n2)nc(-n2nc(C)cc2C)n1	133	25	0.61	81	1600	54	180	156	30	290	20	–	–	–	–	–	–
CCC(=O)Nc1cc(-c2cncc(OC)c2)nc(-n2nc(C)cc2C)n1	39	17	1.8	70	110	29	1380	31	1	860	21	69	2.8	3.6	–	–	–
COCCOc1cncc(-c2cc(NC(C)=O)nc(-n3nc(C)cc3C)n2)c1	–	–	3.1	110	43	3	–	–	–	–	–	–	–	–	–	–	–
COc1cccc(-c2cc(NC(C)=O)nc(-n3nc(C)cc3C)n2)c1	71	0.74	0.92	65	–	–	–	–	–	–	–	–	–	–	–	–	–
CCOC(=O)Nc1cc(-c2cncc(OC)c2)nc(-n2nc(C)cc2C)n1	79	20	7.8	620	59	38	–	196	–	–	82	–	–	–	inactive	–	–
COc1cc(OC)cc(-c2cc(NC(C)=O)nc(-n3nc(C)cc3C)n2)c1	116	0.38	0.19	22	110	9.3	1150	17	1	1330	3	49	3.2	–	–	2.4	< 20
CC(=O)Nc1cc(-c2ccccc2)nc(-n2nc(C)cc2C)n1	3.3	43	–	290	–	–	–	–	–	–	–	–	–	–	–	–	–
CC(=O)Nc1cc(-c2cc(N3CCOCC3)ccn2)nc(-n2nc(C)cc2C)n1	53	–	87	4600	–	–	–	–	–	–	–	–	–	–	–	–	–
COC(=O)Nc1cc(-c2cncc(OC)c2)nc(-n2nc(C)cc2C)n1	106	16	7.4	780	93	16	–	167	10	–	68	46	–	–	–	–	–
COC1CN(c2cccc(-c3cc(NC(C)=O)nc(-n4nc(C)cc4C)n3)n2)C1	72	11	0.47	34	160	25	560	18	–	150	1.5	–	3.6	3.4	–	–	30 (≈ 76.2 µM)
CC(=O)Nc1cc(-c2cccc(N3CCCC3)n2)nc(-n2nc(C)cc2C)n1	28	> 20	0.26	7.2	–	–	–	–	–	–	–	–	–	–	–	–	–
CC(=O)Nc1cc(-c2ccncc2)nc(-n2nc(C)cc2C)n1	21	8.5	40	820	–	–	–	–	–	–	–	–	–	–	–	–	–
CC(=O)Nc1cc(-c2cncc(N3CCOCC3)c2)nc(-n2nc(C)cc2C)n1	74	> 20	3	220	150	12	–	–	–	–	–	–	–	–	–	–	–
CC(=O)Nc1cc(-c2cccc(N3CCCCC3)n2)nc(-n2nc(C)cc2C)n1	54	–	0.56	31	–	–	–	–	–	–	–	–	–	–	–	–	–
CC(=O)Nc1cc(-c2ccnc(N3CCOCC3)c2)nc(-n2nc(C)cc2C)n1	48	–	12	580	–	–	–	–	–	–	–	–	–	–	–	–	–
COCCN(C)c1cccc(-c2cc(NC(C)=O)nc(-n3nc(C)cc3C)n2)n1	76	2.5	0.72	55	490	52	870	70	10	220	14	70	–	–	–	–	–
COc1cncc(-c2cc(NC(=O)CN3CCOCC3)nc(-n3nc(C)cc3C)n2)c1	235	> 20	4	940	150	3	–	49	–	–	30	–	2.4	5.3	inactive	–	–
COc1cccc(-c2cc(NC(C)=O)nc(-n3nc(C)cc3C)n2)c1F	187	> 20	0.6	110	360	36	–	32	–	–	12	–	2	–	inactive	26	170 (≈ 478 µM)
CC(=O)Nc1cc(-c2cncc(O)c2)nc(-n2nc(C)cc2C)n1	67	18	2.9	195	140	41	154	64	–	264	32	–	2.4	–	inactive	–	–

Reference: ChEMBL document CHEMBL1152277, “Lead optimization of 4-acetylamino-2-(3,5-dimethylpyrazol-1-yl)-6-pyridylpyrimidines as A2A adenosine receptor antagonists for the treatment of Parkinson's disease” (J Med Chem, 2008)
